What all share (assay type): cell-based
The target in experiment [1] is T1, GLP-1R (Homo sapiens, UniProt P43220).
T1 construct: expressed in transfected cells
As to the kind of experiment: CreLuc method (CRE-luciferase reporter), HEK293/pGM-CREB-L-Luc/GLP-1R pool. The note with it: 6 h incubation, read-out: EC50 (pM) for each receptor GLP-1R. Put shortly:
(§1)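 Stable HEK293 pools co-expressing each receptor with a CRE-luciferase reporter were plated at 20,000 cells/well in freestyle medium and treated with compound dilution series for 6 h at 37 °C. Luminescence was read with ONE-GLO to derive EC50.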
For orientation: Reporter assays use an easily measured gene product as a stand-in for the process of interest.

Experiment [2] has as its target T2, GIPR (Homo sapiens, UniProt P48546).
T2 construct: expressed in transfected cells
T2 sequence (P48546 22-466): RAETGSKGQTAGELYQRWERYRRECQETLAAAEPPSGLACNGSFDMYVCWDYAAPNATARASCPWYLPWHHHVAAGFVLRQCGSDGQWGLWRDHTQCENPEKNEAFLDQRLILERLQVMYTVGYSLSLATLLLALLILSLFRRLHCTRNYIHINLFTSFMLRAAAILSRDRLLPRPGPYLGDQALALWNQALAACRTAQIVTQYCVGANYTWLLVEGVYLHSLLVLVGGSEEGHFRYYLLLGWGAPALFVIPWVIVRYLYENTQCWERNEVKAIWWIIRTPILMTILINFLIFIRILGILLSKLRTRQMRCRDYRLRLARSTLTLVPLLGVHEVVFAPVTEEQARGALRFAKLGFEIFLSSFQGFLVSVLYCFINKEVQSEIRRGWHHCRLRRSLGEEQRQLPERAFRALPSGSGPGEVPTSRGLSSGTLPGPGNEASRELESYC
As to the kind of experiment: CreLuc method (CRE-luciferase reporter), HEK293/pGM-CREB-L-Luc/GIPR pool. The note with it: 6 h incubation, read-out: EC50 (pM) for each receptor GIPR. Put shortly: as §1

Experiment [3] deals with T3, GCGR (Homo sapiens, UniProt P47871).
T3 construct: expressed in transfected cells
T3 sequence (P47871 26-477, species assumed): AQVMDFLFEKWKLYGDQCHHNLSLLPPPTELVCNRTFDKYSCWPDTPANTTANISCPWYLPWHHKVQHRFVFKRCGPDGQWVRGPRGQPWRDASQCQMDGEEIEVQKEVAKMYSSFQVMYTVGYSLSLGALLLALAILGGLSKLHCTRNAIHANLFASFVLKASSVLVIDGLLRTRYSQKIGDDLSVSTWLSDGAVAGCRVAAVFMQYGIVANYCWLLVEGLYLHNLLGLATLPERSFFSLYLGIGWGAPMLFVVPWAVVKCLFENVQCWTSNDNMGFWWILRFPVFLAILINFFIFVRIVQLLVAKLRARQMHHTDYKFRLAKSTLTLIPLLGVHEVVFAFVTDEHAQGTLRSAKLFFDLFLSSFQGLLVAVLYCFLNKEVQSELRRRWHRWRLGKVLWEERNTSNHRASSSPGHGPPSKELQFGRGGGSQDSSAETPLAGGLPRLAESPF
As to the kind of experiment: CreLuc method (CRE-luciferase reporter), 293HEK/pGM-CREB-L-Luc/GCGR pool. The settings on record: 6 h incubation, read-out: EC50 (pM) for each receptor GCGR. In a few lines:
as §1

For experiment [4], the target named is T1, GLP-1R. The experiment is described as follows: cAMP method (HTRF cAMP detection kit), HEK293/pGM-CREB-L-Luc/GLP-1 pool. The note with it: read-out: EC50 (pM) for each receptor GLP-1R. On the procedure: (§2) 2. Insulinotropic analogues can bind to target receptors on the cell membrane, activate the receptors, and induce release. The activity of the test substance can be determined using the HTRF method with a cAMP detection kit. Therefore, the cAMP method can be used to detect the target peptide derivatives (or polypeptide derivatives, i.e., TG1-TG86) prepared in Example 1 and Example 2. […] The test cell line was selected, treated with cAMP-specific trypsin for digestion. 3 mL of serum-free DMEM culture medium was added, and the cells were pipetted, resuspended, and counted. 5 µL of IBMX (prepared with serum-free DMEM medium, 0.5 mM) and test cells (5 µL/7500 cells/well) were added in a 384-well plate sequentially. The plate was incubated at 37°C under 5% CO2 for 30 min, followed by the addition of cAMP-d2 (5 µL, 1x) and Anti-cAMP-Cryptate (5 µL, 1x). The mixture was kept at room temperature for 1 h, after which the HTRF value was measured using a chemiluminescent microplate reader, and the determination result was recorded. […] Table 4: EC50 values for target peptide derivatives
(Time-resolved FRET reads energy transfer from a long-lived donor to a nearby acceptor.)

For experiment [5], the target named is T2, GIPR. As to the kind of experiment: cAMP method (HTRF cAMP detection kit), HEK293/pGM-CREB-L-Luc/GIP pool. The note with it: read-out: EC50 (pM) for each receptor GIPR. On the procedure:
as §2

For experiment [6], the target named is T3, GCGR. As to the kind of experiment: cAMP method (HTRF cAMP detection kit), HEK293/pGM-CREB-L-Luc/GCG pool. The note with it: read-out: EC50 (pM) for each receptor GCGR. On the procedure: as §2

Molecules are shown by their SMILES.

The EC50 is the concentration at which the effect is half-maximal.

T1 sequence (P43220 24-463, species assumed): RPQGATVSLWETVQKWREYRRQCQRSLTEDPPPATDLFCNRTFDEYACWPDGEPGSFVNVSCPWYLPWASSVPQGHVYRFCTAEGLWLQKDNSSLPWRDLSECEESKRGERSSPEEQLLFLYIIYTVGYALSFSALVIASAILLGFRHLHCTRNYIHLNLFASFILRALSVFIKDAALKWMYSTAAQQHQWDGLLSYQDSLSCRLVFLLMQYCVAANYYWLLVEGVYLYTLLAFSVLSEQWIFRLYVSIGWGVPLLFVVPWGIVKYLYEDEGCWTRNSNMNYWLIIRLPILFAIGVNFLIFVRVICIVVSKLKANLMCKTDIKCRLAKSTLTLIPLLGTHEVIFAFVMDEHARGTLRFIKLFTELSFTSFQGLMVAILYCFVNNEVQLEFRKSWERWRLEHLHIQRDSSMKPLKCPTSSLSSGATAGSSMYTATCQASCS

In the case of `CC[C@H](C)[C@@H]1NC(=O)[C@H](Cc2ccccc2)NC(=O)[C@@H](NC(=O)C(C)(C)NC(=O)[C@H](CCC(N)=O)NC(=O)[C@H](C)NC(=O)[C@H](CCCCNC(C)=O)NC(=O)[C@H](CCCCN)NC(=O)[C@H](CC(=O)O)NC(=O)[C@H](CC(C)C)NC(=O)[C@](C)(CC(C)C)NC(=O)[C@@H](NC(=O)[C@H](CO)NC(=O)[C@H](Cc2ccc(O)cc2)NC(=O)[C@H](CC(=O)O)NC(=O)[C@H](CO)NC(=O)[C@@H](NC(=O)[C@H](Cc2ccccc2)NC(=O)[C@@H](NC(=O)CNC(=O)[C@H](CCC(N)=O)NC(=O)C2(NC(=O)[C@@H](N)Cc3ccc(O)cc3)CCC2)[C@@H](C)O)[C@@H](C)O)[C@@H](C)CC)CSCC(=O)NCCN(C(=O)CCC(=O)NCCOCCOCC(=O)NCCOCCOCC(=O)NCCCC[C@H](NC(=O)CCCCCCCCCCCCCCCCCCC(=O)O)C(=O)O)CCNC(=O)CSC[C@@H](C(=O)NCC(=O)NCC(=O)N2CCC[C@H]2C(=O)N[C@@H](CO)C(=O)N[C@@H](CO)C(=O)NCC(=O)N[C@@H](C)C(=O)N2CCC[C@H]2C(=O)N2CCC[C@H]2C(=O)N2CCC[C@H]2C(=O)N[C@@H](CO)C(N)=O)NC(=O)[C@H](CC(C)C)NC(=O)[C@H](CC(C)C)NC(=O)[C@H](Cc2ccc(O)cc2)NC(=O)[C@H](CCC(=O)O)NC1=O` [TG43], the EC50 at GLP-1R [1] was 57.1 pM; on GIPR [2], 13.6 pM; on GCGR [3] it was 78.7 pM; at GLP-1R [4] it was 1.3 pM; on GIPR [5], 6.4 pM; at GCGR [6], 3.8 pM.
Take `CC[C@H](C)[C@@H]1NC(=O)[C@H](Cc2ccccc2)NC(=O)[C@@H](NC(=O)C(C)(C)NC(=O)[C@H](CCC(N)=O)NC(=O)[C@H](C)NC(=O)[C@H](CCCCNC(C)=O)NC(=O)[C@H](CCCCN)NC(=O)[C@H](CC(=O)O)NC(=O)[C@H](CC(C)C)NC(=O)[C@](C)(CC(C)C)NC(=O)[C@@H](NC(=O)[C@H](CO)NC(=O)[C@H](Cc2ccc(O)cc2)NC(=O)[C@H](CC(=O)O)NC(=O)[C@H](CO)NC(=O)[C@@H](NC(=O)[C@H](Cc2ccccc2)NC(=O)[C@@H](NC(=O)CNC(=O)[C@H](CCC(N)=O)NC(=O)C(C)(C)NC(=O)[C@@H](N)Cc2c[nH]cn2)[C@@H](C)O)[C@@H](C)O)[C@@H](C)CC)CSCC(=O)NCCN(C(=O)CCC(=O)NCCOCCOCC(=O)NCCOCCOCC(=O)NCCCC[C@H](NC(=O)CCCCCCCCCCCCCCCCCCC(=O)O)C(=O)O)CCNC(=O)CSC[C@@H](C(=O)NCC(=O)NCC(=O)N2CCC[C@H]2C(=O)N[C@@H](CO)C(=O)N[C@@H](CO)C(=O)NCC(=O)N[C@@H](C)C(=O)N2CCC[C@H]2C(=O)N2CCC[C@H]2C(=O)N2CCC[C@H]2C(=O)N[C@@H](CO)C(N)=O)NC(=O)[C@H](CC(C)C)NC(=O)[C@H](CC(C)C)NC(=O)[C@H](Cc2ccc(O)cc2)NC(=O)[C@H](CCC(=O)O)NC1=O` [TG18]: the EC50 came to 66.9 pM at GLP-1R [1]; 25.9 pM at GIPR [2]; 802 pM at GCGR [3]; 1.4 pM at GLP-1R [4]; 1.7 pM on GIPR [5]; 94.4 pM at GCGR [6].
`CC[C@H](C)[C@@H]1NC(=O)[C@H](Cc2ccccc2)NC(=O)[C@H](C)NC(=O)C(C)(C)NC(=O)[C@H](CCC(N)=O)NC(=O)[C@H](C)NC(=O)[C@@H](NC(=O)[C@H](CCCCN)NC(=O)[C@H](CC(=O)O)NC(=O)[C@H](CC(C)C)NC(=O)[C@H](CC(C)C)NC(=O)[C@@H](NC(=O)[C@H](CO)NC(=O)[C@H](Cc2ccc(O)cc2)NC(=O)[C@H](CC(=O)O)NC(=O)[C@H](CO)NC(=O)[C@@H](NC(=O)[C@H](Cc2ccccc2)NC(=O)[C@@H](NC(=O)CNC(=O)[C@H](CCC(N)=O)NC(=O)C(C)(C)NC(=O)[C@@H](N)Cc2ccc(O)cc2)[C@@H](C)O)[C@@H](C)O)[C@@H](C)CC)CSCC(=O)NCCN(C(=O)CCC(=O)NCCOCCOCC(=O)NCCOCCOCC(=O)NCCCC[C@H](NC(=O)CCCCCCCCCCCCCCCCCCC(=O)O)C(=O)O)CCNC(=O)CSC[C@@H](C(=O)N[C@@H](Cc2ccc(O)cc2)C(=O)N[C@@H](CC(C)C)C(=O)N[C@@H](CC(C)C)C(=O)N[C@@H](CCC(=O)O)C(=O)NCC(=O)NCC(=O)N2CCC[C@H]2C(=O)N[C@@H](CO)C(=O)N[C@@H](CO)C(=O)NCC(=O)N[C@@H](C)C(=O)N2CCC[C@H]2C(=O)N2CCC[C@H]2C(=O)N2CCC[C@H]2C(=O)N[C@@H](CO)C(N)=O)NC1=O` [TG12]: the EC50 at GLP-1R [1] was 205 pM; on GIPR [2], 66.6 pM; on GCGR [3], 325 pM; at GLP-1R [4], 5.8 pM; at GIPR [5], 12.1 pM; on GCGR [6] it was 40.3 pM.
With `CC[C@H](C)[C@@H]1NC(=O)[C@H](Cc2ccccc2)NC(=O)[C@@H](NC(=O)C(C)(C)NC(=O)[C@H](CCC(N)=O)NC(=O)[C@H](C)NC(=O)[C@H](CCCCNC(C)=O)NC(=O)[C@H](CCCCN)NC(=O)[C@H](CC(=O)O)NC(=O)[C@H](CC(C)C)NC(=O)[C@](C)(CC(C)C)NC(=O)[C@@H](NC(=O)[C@H](CO)NC(=O)[C@H](Cc2ccc(O)cc2)NC(=O)[C@H](CC(=O)O)NC(=O)[C@H](CO)NC(=O)[C@@H](NC(=O)[C@H](Cc2ccccc2)NC(=O)[C@@H](NC(=O)CNC(=O)[C@H](CCC(N)=O)NC(=O)C(C)(C)NC(=O)[C@@H](N)Cc2ccc(O)cc2)[C@@H](C)O)[C@@H](C)O)[C@@H](C)CC)CSCC(=O)NCCN(C(=O)CCC(=O)NCCOCCOCC(=O)NCCOCCOCC(=O)NCCCC[C@H](NC(=O)CCCCCCCCCCCCCCCCCCC(=O)O)C(=O)O)CCNC(=O)CSC[C@@H](C(=O)NCC(=O)NCC(=O)N2CCC[C@H]2C(=O)N[C@@H](CO)C(=O)N[C@@H](CO)C(=O)NCC(=O)N[C@@H](C)C(=O)N2CCC[C@H]2C(=O)N2CCC[C@H]2C(=O)N2CCC[C@H]2C(=O)N[C@@H](CO)C(N)=O)NC(=O)[C@H](CC(C)C)NC(=O)[C@H](CC(C)C)NC(=O)[C@H](Cc2c[nH]c3ccccc23)NC(=O)[C@H](CCC(=O)O)NC1=O` [TG28], the EC50 on GLP-1R [1] was 60.2 pM; on GIPR [2], 30 pM; on GCGR [3] it was 482 pM; on GLP-1R [4], 2.2 pM; at GCGR [6] it was 83.7 pM.
For the compound `CC(C)C[C@H](NC(=O)[C@H](CC(C)C)NC(=O)[C@H](Cc1c[nH]c2ccccc12)NC(=O)[C@@H]1CSCC(=O)NCCN(C(=O)CCC(=O)NCCOCCOCC(=O)NCCOCCOCC(=O)NCCCC[C@H](NC(=O)CCCCCCCCCCCCCCCCCCC(=O)O)C(=O)O)CCNC(=O)CSC[C@H](NC(=O)[C@H](CCCCN)NC(=O)[C@H](CC(=O)O)NC(=O)[C@H](CC(C)C)NC(=O)[C@H](Cc2ccc(O)cc2)NC(=O)[C@H](CCCCN)NC(=O)[C@H](CO)NC(=O)[C@H](Cc2ccc(O)cc2)NC(=O)[C@H](CC(=O)O)NC(=O)[C@H](CO)NC(=O)[C@@H](NC(=O)[C@H](Cc2ccccc2)NC(=O)[C@@H](NC(=O)CNC(=O)[C@H](Cc2c[nH]cn2)NC(=O)C(C)(C)NC(=O)[C@@H](N)Cc2c[nH]cn2)[C@@H](C)O)[C@@H](C)O)C(=O)N[C@@H](Cc2ccc(O)cc2)C(=O)N[C@@H](C)C(=O)N[C@@H](CCC(N)=O)C(=O)N[C@@H](CC(=O)O)C(=O)N[C@@H](Cc2ccccc2)C(=O)N[C@@H](C(C)C)C(=O)N1)C(=O)N[C@@H](CCC(=O)O)C(=O)NCC(=O)NCC(=O)N1CCC[C@H]1C(=O)N[C@@H](CO)C(=O)N[C@@H](CO)C(=O)NCC(=O)N[C@@H](C)C(=O)N1CCC[C@H]1C(=O)N1CCC[C@H]1C(=O)N1CCC[C@H]1C(=O)N[C@@H](CO)C(N)=O` [TG10], the concentration giving a half-maximal response (EC50) was 359 pM on GLP-1R [1]; 368 pM at GIPR [2]; 149 pM on GCGR [3]; 2.5 pM at GLP-1R [4]; 9.7 pM at GIPR [5]; 8.5 pM on GCGR [6].

Values taken from patent EP4790066A1, “GLP-1R/GIPR/GCGR TRIPLE AGONIST ANALOGUE AND USE THEREOF” (Shenzhen Bay Laboratory, priority 2023, dated 2025).
